pIC50: −log10 of the molar value. Where a name gives a salt, the structure may show the parent alone.
What was measured:
Format in all cases: functional, cell-based
HeLa = test: Cytotoxicity against human HeLa cells assessed as reduction in cell viability after 48 hrs by SRB assay
HL-60 = test: Cytotoxicity against human HL-60 cells assessed as reduction in cell viability after 48 hrs by MTT assay; settings: HL-60, 48 h
K562 = test: Cytotoxicity against human K562 cells assessed as reduction in cell viability after 48 hrs by MTT assay; settings: K562, 48 h
HCT-116 = test: Cytotoxicity against human HCT-116 cells assessed as reduction in cell viability after 48 hrs by SRB assay; settings: HCT-116, 48 h

SMILES	pIC50 (HeLa)	pIC50 (HL-60)	pIC50 (K562)	pIC50 (HCT-116)
CC(=O)[C@H]1c2cc3c(-c4ccc(O)c5c(O)c6c(cc45)[C@H](C(C)=O)[C@@](C)(O)CC6=O)ccc(O)c3c(O)c2C(=O)C[C@]1(C)O	< 5.00	< 5.00	< 5.00	< 5.00
CC(=O)[C@H]1c2cc3ccc(-c4c5c(c(O)c6c(O)cccc46)C(=O)C[C@](C)(O)[C@H]5C(C)=O)c(O)c3c(O)c2C(=O)C[C@]1(C)O	< 5.00	< 5.00	< 5.00	< 5.00
CC(=O)[C@H]1c2c(c(O)c3c(O)cccc3c2-c2c3c(c(O)c4c(O)cccc24)C(=O)C[C@](C)(O)[C@H]3C(C)=O)C(=O)C[C@]1(C)O	5.74	< 5.00	5.29	< 5.00
CC(=O)[C@H]1c2cc3cccc(O)c3c(O)c2C(=O)C[C@]1(C)O	< 5.00	< 5.00	< 5.00	< 5.00
CC(=O)[C@H]1c2cc3c(-c4c5c(c(O)c6c(O)cccc46)C(=O)C[C@](C)(O)[C@H]5C(C)=O)ccc(O)c3c(O)c2C(=O)C[C@]1(C)O	5.29	5.21	5.00	< 5.00
COc1cccc2c1C(=O)c1c(O)c3c(c(O)c1C2=O)C[C@@](O)(C(=O)CO)C[C@@H]3O[C@H]1C[C@H](N)[C@H](O)[C@H](C)O1 [DOXORUBICIN HYDROCHLORIDE]			6.70	

From ChEMBL document CHEMBL4699474, “Dimeric Tetrahydroanthracene Regioisomers and Their Monomeric Precursor Produced by Streptomyces fumigatiscleroticus HDN10255” (J Nat Prod, 2020)
